Results published in article PMC8266232, “Design, synthesis, and analysis of antiproliferative and apoptosis-inducing activities of nitrile derivatives containing a benzofuran scaffold: EGFR inhibition assay and molecular modelling study” (Journal of Enzyme Inhibition and Medicinal Chemistry, 2021).
Read-outs that look alike come from different tables or passages of the source.

Assays:
[1] = test system: HePG2 cells (hepatocellular carcinoma); experiment: MTT antiproliferative assay, HePG2; type: cell-based, human; details: HePG2, triplicate, read-out: In vitro cytotoxicity IC50, HePG2
Procedure: (§1) The in vitro antiproliferative activity of all synthesised compounds was evaluated by an MTT assay according to the reported method[47]^,[48].
(§2) 2. Experimental procedure
(§3) 2.1. Antiproliferative screening
(§4) The in vitro antiproliferative activity of all synthesized compounds was evaluated by an MTT assay according to the reported method using five different human cancer cell lines, including […]
(§5) cervical carcinoma (HeLa), and human prostate cancer (PC-3). The cell lines were obtained from ATCC via a holding company for biological products and vaccines (VACSERA), Cairo, Egypt. The MTT assay is a colorimetric assay used for measuring the cellular growth based on the reduction of the yellow MTT to a purple formazan derivative by mitochondrial succinate dehydrogenase in viable cells. The color intensity of the formazan dye is correlated to the number of viable cells. The […]
(§6) IC50% values were calculated using dose response curves. The percentage of relative cell viability was calculated as (A570 of treated samples)/(A570 of untreated sample) × 100. The cytotoxic activity was defined as the concentration of the compound that caused 50% growth inhibition compared with the growth of an untreated cell. […]

[2] = test system: HCT-116 cells (colorectal carcinoma); experiment: MTT antiproliferative assay, HCT-116; type: cell-based, human; details: HCT-116, triplicate, read-out: In vitro cytotoxicity IC50, HCT-116
Procedure: as §1, §2, §3, §4, §5, §6

[3] = test system: MCF-7 cells (human breast adenocarcinoma); experiment: MTT antiproliferative assay, MCF-7; type: cell-based; details: MCF-7, triplicate, read-out: In vitro cytotoxicity IC50, MCF-7
Procedure: as §1, §2, §3, §4, §5, §6

[4] = test system: PC3 cells (human prostate carcinoma); experiment: MTT antiproliferative assay, PC3; type: cell-based; details: PC-3, PC3, triplicate, read-out: In vitro cytotoxicity IC50, PC3
Procedure: as §1, §2, §3, §4, §5, §6

[5] = test system: HeLa cells (cervical carcinoma); experiment: MTT antiproliferative assay, HeLa; type: cell-based, human; details: triplicate, read-out: In vitro cytotoxicity IC50, HeLa
Procedure: as §1, §2, §3, §4, §5, §6

[6] = test system: HePG2, HCT-116, MCF-7, PC3, HeLa cell lines; experiment: MTT antiproliferative assay, IC50 range over the cancer cell line panel; type: cell-based; details: Homo sapiens
Procedure: as §1, §2, §3, §4, §5, §6

WI38 normal cell = experiment: MTT cytotoxicity on normal fibroblast cells; type: cell-based; details: Homo sapiens, WI-38; MTT assay, non tumour normal cell WI38
EGFR TK = biological target: T1, EGFR TK (Homo sapiens, UniProt P00533); experiment: EGFR TK inhibition assay (luminescent, Kinase-Glo MAX); type: biochemical
T1 construct: add 20 μl of diluted EGFR enzyme and incubate at 30°C for 40
Procedure: 2.2. Epidermal growth factor inhibition assay
In vitro luminescent EGFR tyrosine kinase assay, using Kinase-Glo® MAX as a detection reagent using DP‐Glo™ reagent that measures the adenosine diphosphate (ADP) formed from a kinase reaction, were performed; this luminescent signal positively correlates with ADP amount and kinase activity. In 17 μl of distilled water, 6 μl of Kinase assay buffer and 1 μl ATP and 1 μl PTK substrate were mixed (master mixture). In every well, mix 20 μl of the master mixture and 5 μl of Inhibitor solution (Test Inhibitor) for positive control, and use 5 μl of the same solution without inhibitor (Inhibitor buffer) as the blank solution; add 20 μl of diluted EGFR enzyme and incubate at 30°C for 40

[7] = test system: human caspase-3 (active) in HCT-116 cells; experiment: Caspase-3 ELISA in HCT-116 cells; type: cell-based
Procedure: Caspases are critical mediators of programmed cell death, that is, apoptosis. Caspase-3 is important in processes involving dissociation of the cell and the formation of the apoptotic element; therefore, it is regarded as one of the best biochemical hallmarks of apoptosis. […] The concentration of active caspase-3 was measured using the ELISA technique. In addition, the fluorescence density produced by the tested compounds is illustrated in Figure 4. […] The level of caspase-3 increased 5.7-fold compared to the control. Moreover, a considerable 7.3-fold increase in the caspase-3 level was detected following the treatment of the MCF-7 cells with compound 11. The bioluminescent intensities of caspase-3 indicated the apoptotic activity of compounds 3 and 11.
Afterward, measure luminescence using the
tested in triplicates.[36-38].
active caspase-3 [49]. […] The tested
Subsequently, 100 µL of an
incubated for 30 min at room temperature.
chromogen. […] The intensity of the resulting colored

HCT-116 cells [8] = experiment: Annexin V-FITC/PI apoptosis assay, HCT-116; details: HCT-116, 10 µM, 24 h; for Late apoptosis: control 0.11; for Necrosis: control 0.12; for Early apoptosis: control 0.16; for Apoptosis, Total: control 0.39
Procedure: (§7) A comparison was made to the control (DMSO) and reference (gefitinib).
(§8) The cell line samples were analysed using FACSCalibur flow cytometer.
(§9) with PI. The cells were compared with the control, which was treated with DMSO.
Analysis of cellular apoptosis
(§10) concentration, respectively, and then incubated for 24 h. Following incubation, 1 –5 × 10^5 cells were
(§11) harvested and suspended in 500 µ L of the binding buffer, 5 µ L of annexin V-FITC, and 5 µL of PI.
(§12) annexin V-FITC conjugate is specially engineered to produce an enhanced fluorescence signal and
(§13) photostability. The annexin V-FITC kit included annexin V-FITC for detecting apoptosis as well as PI
(§14) for detecting necrosis. Thus, apoptosis and necrosis could be effectively differentiated. Detection and
(§15) analysis of the annexin V-FITC binding by flow cytometry was conducted using a FITC signal
(§16) detector (typically FL1). PI staining was evaluated by a phycoerythrin emission signal detector

HCT-116 cells [9] = experiment: Cell cycle analysis by PI flow cytometry, HCT-116; details: HCT-116, 10 µM, 24 h; for %Pre/G1: control 0.39, '% Apoptosis' in Figure 5A; for %G2/M: control 4.19; for %S: control 25.21; for %G0/G1: control 70.21
Procedure: as §7
(§17) Cell cycle analysis and induction of apoptosis
(§18) Flow cytometry analysis of the cell cycle distribution
(§19) incubation period, the cells were collected, centrifuged, and ﬁxed with ice-cold ethanol (70%). The cells were subsequently treated with a buffer containing RNAse A and 0.1% Triton X-100, and stained
(§20) with PI. The cells were compared with the control, which was treated with DMSO. The DNA content
was measured by flow cytometry [50-52].

MCF-7 cells [10] = experiment: Annexin V-FITC/PI apoptosis assay, MCF-7; details: MCF-7, 10 µM, 24 h
Procedure: as §7, §8, §9
Analysis of cellular apoptosis
as §10, §11, §12, §13, §14, §15, §16

MCF-7 cells [11] = experiment: Cell cycle analysis by PI flow cytometry, MCF-7; details: MCF-7, 10 µM, 24 h
Procedure: as §7, §17, §18, §19, §20
was measured by flow cytometry [50-52].

[12] = Homo sapiens, HCT-116, MTT assay
[13] = HePG2, HCT-116, MCF-7, PC3, HeLa, read-out: IC50 range over all tested cancer cell lines
[14] = four cell lines, without HCT-116, read-out: IC50 range against HePG2, MCF-7, PC3, and HeLa cell lines

T1 sequence (P00533 25-1210): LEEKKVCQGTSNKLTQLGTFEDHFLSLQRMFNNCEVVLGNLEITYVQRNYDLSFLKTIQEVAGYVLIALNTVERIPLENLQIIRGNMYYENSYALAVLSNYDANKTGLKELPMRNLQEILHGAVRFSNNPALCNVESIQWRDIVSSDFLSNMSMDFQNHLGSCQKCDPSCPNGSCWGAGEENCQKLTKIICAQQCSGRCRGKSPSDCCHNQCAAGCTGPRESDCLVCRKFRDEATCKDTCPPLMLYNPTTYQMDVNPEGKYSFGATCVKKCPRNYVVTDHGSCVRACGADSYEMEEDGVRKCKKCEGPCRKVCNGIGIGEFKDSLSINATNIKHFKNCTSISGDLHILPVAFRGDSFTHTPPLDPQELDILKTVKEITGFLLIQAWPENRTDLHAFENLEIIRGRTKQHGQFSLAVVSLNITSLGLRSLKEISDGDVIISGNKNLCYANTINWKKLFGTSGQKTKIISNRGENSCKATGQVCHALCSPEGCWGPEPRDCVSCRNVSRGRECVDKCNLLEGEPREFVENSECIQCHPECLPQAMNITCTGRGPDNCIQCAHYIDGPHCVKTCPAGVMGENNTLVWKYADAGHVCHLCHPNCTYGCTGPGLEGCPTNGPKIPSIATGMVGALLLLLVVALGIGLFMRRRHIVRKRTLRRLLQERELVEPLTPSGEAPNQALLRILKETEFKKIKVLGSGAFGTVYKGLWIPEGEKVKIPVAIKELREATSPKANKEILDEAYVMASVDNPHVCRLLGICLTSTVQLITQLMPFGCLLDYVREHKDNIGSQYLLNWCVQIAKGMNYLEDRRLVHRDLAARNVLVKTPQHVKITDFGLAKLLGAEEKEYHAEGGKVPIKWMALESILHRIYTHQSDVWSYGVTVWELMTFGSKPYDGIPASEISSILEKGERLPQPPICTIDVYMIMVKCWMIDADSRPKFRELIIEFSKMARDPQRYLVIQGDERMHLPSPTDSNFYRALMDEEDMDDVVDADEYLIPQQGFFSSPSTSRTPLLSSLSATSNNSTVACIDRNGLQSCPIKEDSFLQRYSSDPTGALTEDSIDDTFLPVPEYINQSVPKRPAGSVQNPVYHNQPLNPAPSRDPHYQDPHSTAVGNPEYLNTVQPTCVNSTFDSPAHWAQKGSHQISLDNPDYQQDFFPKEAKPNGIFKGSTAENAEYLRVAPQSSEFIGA

Row | Compound | IC50 ([1]; Homo sapiens, HepG2, MTT assay) [µM] | IC50 [2, 12] [µM] | IC50 ([2]; MTT assay) [µM] | IC50 ([3]; Homo sapiens, MCF7, MTT assay) [µM] | IC50 [4] [µM] | IC50 ([5]; Homo sapiens) [µM] | IC50 (WI38 normal cell) [µM] | IC50 (EGFR TK) [µM] | melting point [°C] | other results
1 | CN(C)C/C=C/C(=O)Nc1cc2c(Nc3ccc(F)c(Cl)c3)ncnc2cc1O[C@H]1CCOC1 [Afatinib, reference compound] | 5.53 | 11.2 | 11.2 ± 1.11 | 7.23 | 7.6 ± 0.6 | 6.3 ± 0.69 | – | – | – | IC50 ([1]; MTT assay): 5.5 ± 0.24 µM; IC50 ([3]; MTT assay): 7.2 ± 0.5 µM; IC50 [6, 13]: 5.5 to 11.2 µM
2 | CC(=C(C#N)C#N)c1cc2ccccc2o1 [Compound 2, 2-(1-(benzofuran-2-yl)ethylidene)malononitrile] | 16.1 to 23.7 | 8.81 to 13.8 | 8.81 ± 0.7 | 8.36 to 17.3 | 26.8 ± 2.2 | 39 ± 2.4 | 86.5 ± 4.7 | 1.09 | 140 to 142 | IC50 ([1]; MTT assay): 16.1 ± 1.4 µM; IC50 ([3]; MTT assay): 8.36 ± 0.9 µM
3 | CN(C)/C=C/C(=C(C#N)C#N)c1cc2ccccc2o1 [Compound 3, (E)-2-(1-(benzofuran-2-yl)-3-(dimethylamino)allylidene)malononitrile] | 40 ± 2.5 | 10.8 ± 1 | – | 27.4 ± 1.8 | 44.5 ± 3.5 | 69 ± 3.9 | 63.1 ± 3.43 | 0.93 | – | Caspase-3 Conc. ([7]; 24 h treatment, ELISA, control 63.51): 363.4 pg/mL; Caspase-3 level, Fold ([7]; compared to the control): 5.7 fold; Late apoptosis (HCT-116 cells [8]): 5.79%; Necrosis (HCT-116 cells [8]): 1.32%; Early apoptosis (HCT-116 cells [8]): 5.95%; Apoptosis, Total (HCT-116 cells [8]): 13.06%; %Pre/G1 (HCT-116 cells [9]): 13.06%; %G2/M (HCT-116 cells [9]): 12.62%; %S (HCT-116 cells [9]): 20.91%; %G0/G1 (HCT-116 cells [9]): 53.41%
4 | CCNc1nccc(-c2cc3ccccc3o2)c1C#N [Compound 4, 4-(Benzofuran-2-yl)-2-(ethylamino)nicotinonitrile] | 58.8 ± 3.3 | 72.4 ± 3.8 | – | 55 ± 3.2 | 14.3 ± 1.3 | 21 | – | – | 155 to 158 | IC50 [5]: 21.1 ± 1.6 µM; IC50 [6, 14]: 14.3 to 58.8 µM
5 | CCCNc1nccc(-c2cc3ccccc3o2)c1C#N [Compound 5, 4-(Benzofuran-2-yl)-2-(propylamino)nicotinonitrile] | 83.6 ± 4.4 | 94.1 ± 5.1 | – | > 100 | 94.6 ± 4.9 | 75.2 ± 4.8 | – | – | 118 to 120 | IC50 [6, 14]: 75.2 to 100 µM
6 | CCCCNc1nccc(-c2cc3ccccc3o2)c1C#N [Compound 6, 4-(Benzofuran-2-yl)-2-(butylamino)nicotinonitrile] | 79 ± 4.2 | 56.4 ± 3.2 | – | 81.6 ± 4 | > 100 | 91.9 ± 5.1 | 204 ± 11.1 | – | 112 to 114 | IC50 [6, 14]: 75.2 to 100 µM
7 | N#Cc1c(-c2cc3ccccc3o2)ccnc1NCCO [Compound 7, 4-(Benzofuran-2-yl)-2-(2-hydroxyethylamino)nicotinonitrile] | 53.4 ± 2.9 | 38.6 | 38.6 ± 2 | 40.8 ± 2.5 | 70.1 ± 3.8 | 73.3 ± 4.2 | 59.5 ± 3.23 | – | 164 to 166 | IC50 [6, 13]: 38.6 to 73.3 µM
8 | N#Cc1c(-c2cc3ccccc3o2)ccnc1NCCCO [Compound 8, 4-(Benzofuran-2-yl)-2-(3-hydroxypropylamino)nicotinonitrile] | 16.1 to 23.7 | 8.81 to 13.8 | 13.8 ± 1.3 | – | 36.7 ± 2.8 | 58.8 ± 3.7 | 151 ± 8.22 | 4.24 | 124 to 126 | IC50 ([1]; MTT assay): 23.7 ± 1.8 µM; IC50 [6, 13]: 13.8 to 58.8 µM
9 | N#Cc1c(-c2cc3ccccc3o2)ccnc1NC1CCCCC1 [Compound 9, 4-(Benzofuran-2-yl)-2-(cyclohexylamino)nicotinonitrile] | 44.7 ± 2.7 | 29.5 ± 1.8 | – | 35.2 ± 2.2 | 51.1 ± 3.6 | 73.6 ± 4.1 | – | – | 186 to 188 | –
10 | N#Cc1c(-c2cc3ccccc3o2)ccnc1NCc1ccccc1 [Compound 10, 4-(Benzofuran-2-yl)-2-(benzylamino)nicotinonitrile] | 34.3 ± 2.1 | 27.5 ± 1.5 | – | 19.7 ± 1.6 | 30.9 ± 2.6 | 46.2 ± 3 | – | 1.12 | 180 to 182 | –
11 | COc1ccc(CCNc2nccc(-c3cc4ccccc4o3)c2C#N)cc1 [Compound 12, 4-(Benzofuran-2-yl)-2-(4-methoxyphenethylamino)nicotinonitrile] | 70.5 ± 3.8 | 49.7 ± 2.9 | – | 61.5 ± 3.5 | 93.5 ± 4.4 | 85.4 ± 4.7 | 76.3 ± 4.14 | – | 156 to 158 | –
12 | COc1cccc2c1C(=O)c1c(O)c3c(c(O)c1C2=O)C[C@@](O)(C(=O)CO)C[C@@H]3O[C@H]1C[C@H](N)[C@H](O)[C@H](C)O1 [DOX, Doxorubicin, reference compound] | 4.5 ± 0.2 | – | – | – | – | – | 55.3 ± 3 | – | – | –
13 | COc1cc2ncnc(Nc3ccc(F)c(Cl)c3)c2cc1OCCCN1CCOCC1 [Gefitinib, reference compound] | – | – | – | – | – | – | – | – | – | Necrosis (MCF-7 cells [10]; control 0.15): 1.64%; Early apoptosis (MCF-7 cells [10]; control 0.16): 4.28%; Late apoptosis (MCF-7 cells [10]; control 0.24): 7.63%; Apoptosis, Total (MCF-7 cells [10]; control 0.55): 13.55%; Late apoptosis (HCT-116 cells [8]): 7.47%; Necrosis (HCT-116 cells [8]): 1.8%; Early apoptosis (HCT-116 cells [8]): 7.22%; Apoptosis, Total (HCT-116 cells [8]): 16.49%; %Pre/G1 (MCF-7 cells [11]; control 0.55, '% Apoptosis' in Figure 6A): 13.55%; %G2/M (MCF-7 cells [11]; control 3.66): 23.63%; %S (MCF-7 cells [11]; control 27.37): 16.51%; %G0/G1 (MCF-7 cells [11]; control 66.42): 46.31%; %Pre/G1 (HCT-116 cells [9]): 16.49%; %G2/M (HCT-116 cells [9]): 21.71%; %S (HCT-116 cells [9]): 13.34%; %G0/G1 (HCT-116 cells [9]): 48.37%
